# pIC50: −log10 of the molar value.
# Molecular target: T1, LPA1 (Homo sapiens, UniProt Q92633)
# T1 construct: ProLink (PK) beta-galactosidase enzyme-fragment tag; host or cells: CHO-K1
# Experiment: LPA1 calcium flux assay (LPA1 functional antagonist assay)
# Format: cell-based
# Settings: PathHunter CHO-K1 EDG2 β-Arrestin cell line; calcium indicator dye; stimulated with EC80 concentration of LPA; FLIPR Tetra
# Summary of the method: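 The LPA1 antagonist readout was intracellular calcium flux, and IC50 values were calculated from it. Plates stood 30 min at RT after compound addition. Cells, grown overnight, had first taken up calcium dye over 45 min at 37 °C.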
# T1 sequence (Q92633 whole entry, the tested form may be a part): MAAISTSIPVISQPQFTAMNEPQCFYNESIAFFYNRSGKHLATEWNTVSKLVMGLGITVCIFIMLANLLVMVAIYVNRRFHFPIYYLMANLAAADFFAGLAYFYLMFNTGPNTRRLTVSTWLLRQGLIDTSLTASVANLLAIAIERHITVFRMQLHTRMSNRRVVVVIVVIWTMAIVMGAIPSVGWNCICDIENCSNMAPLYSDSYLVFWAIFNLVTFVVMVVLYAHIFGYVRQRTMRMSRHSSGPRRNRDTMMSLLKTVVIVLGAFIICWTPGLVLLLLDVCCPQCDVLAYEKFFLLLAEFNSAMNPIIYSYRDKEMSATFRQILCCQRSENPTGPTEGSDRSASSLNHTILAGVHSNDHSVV
row,Structure (SMILES),pIC50
1,"CCc1nc(-c2nnn(C)c2CNc2nncc(C3CC3)n2)ccc1N1C[C@H](CC(=O)O)CC(F)(F)C1 (stereo in doubt) [Example 112, (R)-2-(1-(6-(5-(((5-cyclopropyl-1,2,4-triazin-3-yl)amino)methyl)-1-methyl-1H-1,2,3-triazol-4-yl)-2-ethylpyridin-3-yl)-5,5-difluoropiperidin-3-yl)acetic acid]",5.30 to 6.30
2,"Cc1nc(-c2onc(C)c2COc2cc(-n3cccn3)ncn2)ccc1N1C[C@@H](CC(=O)O)CC(F)(F)C1 [Example 105, (S)-2-(1-(6-(4-(((6-(1H-pyrazol-1-yl)pyrimidin-4-yl)oxy)methyl)-3-methylisoxazol-5-yl)-2-methylpyridin-3-yl)-5,5-difluoropiperidin-3-yl)acetic acid]",> 7.00
3,"CCc1nc(-c2nnn(C)c2COc2nccc(C3CCC3)n2)ccc1N1CCCC(CC(=O)O)C1=O (single isomer, unassigned) [Example 93, (R) or (S)-2-(1-(6-(5-(((4-cyclobutylpyrimidin-2-yl)oxy)methyl)-1-methyl-1H-1,2,3-triazol-4-yl)-2-ethylpyridin-3-yl)-2-oxopiperidin-3-yl)acetic acid]",6.30 to 7.00
4,"CCc1nc(-c2nnn(C)c2Cn2cc(OC3CC3)ccc2=O)ccc1N1C[C@@H](CC(=O)O)CC(F)(F)C1 [Example 24, (S)-2-(1-(6-(5-((5-cyclopropoxy-2-oxopyridin-1(2H)-yl)methyl)-1-methyl-1H-1,2,3-triazol-4-yl)-2-ethylpyridin-3-yl)-5,5-difluoropiperidin-3-yl)acetic acid]",> 7.00
5,"CCc1nc(-c2nnn(C)c2Cn2cc(CC3CCC3)ccc2=O)ccc1N1C[C@@H](CC(=O)O)CC(F)(F)C1 [Example 14, (S)-2-(1-(6-(5-((5-(cyclobutylmethyl)-2-oxopyridin-1(2H)-y)methyl)-1-methyl-1H-1,2,3-triazol-4-yl)-2-ethylpyridin-3-yl)-5,5-difluoropiperidin-3-yl)acetic acid]",> 7.00
6,"CCc1nc(-c2nnn(C)c2Cn2cc(C3CCC3)ccc2=O)ccc1N1C[C@@H](CC(=O)O)CC(F)(F)C1 [Example 17, (S)-2-(1-(6-(5-((5-cyclobutyl-2-oxopyridin-1(2H)-yl)methyl)-1-methyl-1H-1,2,3-triazol-4-yl)-2-ethylpyridin-3-yl)-5,5-difluoropiperidin-3-yl)acetic acid]",> 7.00
7,"CCc1nc(-c2cnn(C)c2Cn2cc(CC(C)C)ccc2=O)ncc1N1C[C@@H](CC(=O)O)CC(F)(F)C1 [Example 40, (S)-2-(1-(4-ethyl-2-(5-((5-isobutyl-2-oxopyridin-1(2H)-yl)methyl)-1-methyl-1H-pyrazol-4-yl)pyrimidin-5-yl)-5,5-difluoropiperidin-3-yl)acetic acid]",5.30 to 6.30
8,"CCc1nc(-c2nnn(C)c2Cn2cc(CC3CC3)ccc2=O)ccc1N1C[C@@H](CC(=O)O)CC(F)(F)C1 [Example 13, (S)-2-(1-(6-(5-((5-(cyclopropylmethyl)-2-oxopyridin-1(2H)-yl)methyl)-1-methyl-1H-1,2,3-triazol-4-yl)-2-ethylpyridin-3-yl)-5,5-difluoropiperidin-3-yl)acetic acid]",> 7.00
9,"CCCc1ccc(=O)n(Cc2c(-c3ccc(N4C[C@@H](CC(=O)O)CC(F)(F)C4)c(CC)n3)cnn2C)c1 [Example 41, (S)-2-(1-(2-ethyl-6-(1-methyl-5-((2-oxo-5-propylpyridin-1(2H)-yl)methyl)-1H-pyrazol-4-yl)pyridin-3-yl)-5,5-difluoropiperidin-3-yl)acetic acid]",6.30 to 7.00
10,"CCc1nc(-c2nnn(C)c2COc2nnn(CC(C)C)n2)ccc1N1C[C@@H](CC(=O)O)CC(F)(F)C1 [Example 124, (S)-2-(1-(2-ethyl-6-(5-(((2-isobutyl-2H-tetrazol-5-yl)oxy)methyl)-1-methyl-1H-1,2,3-triazol-4-yl)pyridin-3-yl)-5,5-difluoropiperidin-3-yl)acetic acid]",> 7.00
11,"CCc1nc(-c2nnn(C)c2CNc2nccc(C3CC3)n2)ccc1CN1CC(C(=O)O)CC(F)(F)C1 (centres unmarked) [Example 151, 1-((6-(5-(((4-cyclopropylpyrimidin-2-yl)amino)methyl)-1-methyl-1H-1,2,3-triazol-4-yl)-2-ethylpyridin-3-yl)methyl)-5,5-difluoropiperidine-3-carboxylic acid]",5.30 to 6.30
12,"CCc1nc(-c2nnn(C)c2Cn2nc(CC3CC3)n(C)c2=O)ccc1N1C[C@@H](CC(=O)O)CC(F)(F)C1 [Example 68, (S)-2-(1-(6-(5-((3-(cyclopropylmethyl)-4-methyl-5-oxo-4,5-dihydro-1H-1,2,4-triazol-1-yl)methyl)-1-methyl-1H-1,2,3-triazol-4-yl)-2-ethylpyridin-3-yl)-5,5-difluoropiperidin-3-yl)acetic acid]",5.30 to 6.30
13,"CCCN(C)C(=O)OCc1c(-c2ccc(N3CCC[C@H](CC(=O)O)C3)c(CC)n2)nnn1C [Example 145, (R)-2-(1-(2-ethyl-6-(1-methyl-5-(((methyl(propyl)carbamoyl)oxy)methyl)-1H-1,2,3-triazol-4-yl)pyridin-3-yl)piperidin-3-yl)acetic acid]",5.30 to 6.30
14,"CCc1nc(-c2nnn(C)c2CNc2nccc(C3CCC3)n2)ccc1CN1CC(C(=O)O)CC(F)(F)C1 (single isomer, unassigned) [Example 163, (R) or (S)-1-((6-(5-(((4-cyclobutylpyrimidin-2-yl)amino)methyl)-1-methyl-1H-1,2,3-triazol-4-yl)-2-ethylpyridin-3-yl)methyl)-5,5-difluoropiperidine-3-carboxylic acid]",6.30 to 7.00
15,"CCCn1ncnc1OCc1c(-c2ccc(N3C[C@@H](CC(=O)O)CC(F)(F)C3)c(CC)n2)nnn1C [Example 121, (S)-2-(1-(2-ethyl-6-(1-methyl-5-(((1-propyl-1H-1,2,4-triazol-5-yl)oxy)methyl)-1H-1,2,3-triazol-4-yl)pyridin-3-yl)-5,5-difluoropiperidin-3-yl)acetic acid]",5.30 to 6.30
16,"CCc1nc(-c2nnn(C)c2COc2noc(C3CCC3)n2)ccc1N1C[C@@H](CC(=O)O)CC(F)(F)C1 [Example 119, (S)-2-(1-(6-(5-(((5-cyclobutyl-1,2,4-oxadiazol-3-yl)oxy)methyl)-1-methyl-1H-1,2,3-triazol-4-yl)-2-ethylpyridin-3-yl)-5,5-difluoropiperidin-3-yl)acetic acid]",6.30 to 7.00
17,"CCc1nc(-c2nnn(C)c2CNc2nccc(C3CCC3)n2)ccc1CN1CC(C(=O)O)CC(F)(F)C1 (single isomer, unassigned) [Example 162, (S) or (R)-1-((6-(5-(((4-cyclobutylpyrimidin-2-yl)amino)methyl)-1-methyl-1H-1,2,3-triazol-4-yl)-2-ethylpyridin-3-yl)methyl)-5,5-difluoropiperidine-3-carboxylic acid]",> 7.00
18,"CCc1nc(-c2cnn(C)c2Cn2cc(C3CC3)ccc2=O)ncc1N1C[C@@H](CC(=O)O)CC(F)(F)C1 [Example 39, (S)-2-(1-(2-(5-((5-cyclopropyl-2-oxopyridin-1(2H)-yl)methyl)-1-methyl-1H-pyrazol-4-yl)-4-ethylpyrimidin-5-yl)-5,5-difluoropiperidin-3-yl)acetic acid]",5.30 to 6.30
19,"CCc1nc(-c2cnn(C)c2COc2cc(-n3cccn3)ncn2)ccc1N1CCC[C@H](CC(=O)O)C1 [Example 90, (R)-2-(1-(6-(5-(((6-(1H-pyrazol-1-yl)pyrimidin-4-yl)oxy)methyl)-1-methyl-1H-pyrazol-4-yl)-2-ethylpyridin-3-yl)piperidin-3-yl)acetic acid]",> 7.00
20,"Cc1nc(-c2nnn(C)c2COc2nnccc2CC(C)C)ccc1N1C[C@@H](CC(=O)O)CC(F)(F)C1 [Example 86, (S)-2-(5,5-difluoro-1-(6-(5-(((4-isobutylpyridazin-3-yl)oxy)methyl)-1-methyl-1H-1,2,3-triazol-4-yl)-2-methylpyridin-3-yl)piperidin-3-yl)acetic acid]",6.30 to 7.00
21,"CCCc1ccc(=O)n(Cc2c(-c3ccc(N4CCC[C@@H](CC(=O)O)C4)c(C#N)n3)nnn2C)c1 [Example 51, (S)-2-(1-(2-cyano-6-(1-methyl-5-((2-oxo-5-propylpyridin-1(2H)-yl)methyl)-1H-1,2,3-triazol-4-yl)pyridin-3-yl)piperidin-3-yl)acetic acid]",< 5.30
22,"CCCc1cccn(Cc2c(-c3ccc(N4C[C@@H](CC(=O)O)CC(F)(F)C4)c(C)n3)nnn2C)c1=O [Example 5, (S)-2-(5,5-difluoro-1-(2-methyl-6-(1-methyl-5-((2-oxo-3-propylpyridin-1(2H)-yl)methyl)-1H-1,2,3-triazol-4-yl)pyridin-3-yl)piperidin-3-yl)acetic acid]",< 5.30
23,"Cc1nc(-c2nnn(C)c2COc2nccc(C(C)C)n2)ccc1N1C[C@@H](CC(=O)O)CC(F)(F)C1 [Example 77, (S)-2-(5,5-difluoro-1-(6-(5-(((4-isopropylpyrimidin-2-yl)oxy)methyl)-1-methyl-1H-1,2,3-triazol-4-yl)-2-methylpyridin-3-yl)piperidin-3-yl)acetic acid]",6.30 to 7.00
24,"CCCc1ccc(=O)n(Cc2c(-c3ccc(N4C[C@@H](CC(=O)O)CC(F)(F)C4)c(C)n3)nnn2C)c1 [Example 4, (S)-2-(5,5-difluoro-1-(2-methyl-6-(1-methyl-5-((2-oxo-5-propylpyridin-1(2H)-yl)methyl)-1H-1,2,3-triazol-4-yl)pyridin-3-yl)piperidin-3-yl)acetic acid]",6.30 to 7.00
25,"CCCc1ccnn(Cc2c(-c3ccc(N4C[C@@H](CC(=O)O)CC(F)(F)C4)c(C)n3)nnn2C)c1=O [Example 32, (S)-2-(5,5-difluoro-1-(2-methyl-6-(1-methyl-5-((6-0xo-5-propylpyridazin-1(6H)-yl)methyl)-1H-1,2,3-triazol-4-yl)pyridin-3-yl)piperidin-3-yl)acetic acid]",5.30 to 6.30
26,"Cc1nc(-c2nnn(C)c2COc2nccc(C3CCC3)n2)ccc1CN1CC(C(=O)O)CC(F)(F)C1 (single isomer, unassigned) [Example 147, (S) or (R)-1-((6-(5-(((4-cyclobutylpyrimidin-2-yl)oxy)methyl)-1-methyl-1H-1,2,3-triazol-4-yl)-2-methylpyridin-3-yl)methyl)-5,5-difluoropiperidine-3-carboxylic acid]",> 7.00
